Experimental data taken from patent US6608082B1, “Treatment of erectile dysfunction using isoquinoline compound melanocortin receptor ligands” (Lion Bioscience AG, priority 1998, dated 2003).

Experiments:
MCR-1 = target: T1, MCR-1 (Homo sapiens, UniProt Q01726); assay: Melanocortin receptor binding assay, competition with 125I-HP 467, HEK 293 cells expressing hMCR-1; conditions: TRG 2406 and TRG 2407 libraries; inhibition of binding of 125I-HP 467; read-out: MC-1 IC50
T1 construct: expressed in transfected cells; host or cells: HEK 293
T1 sequence (Q01726 whole entry): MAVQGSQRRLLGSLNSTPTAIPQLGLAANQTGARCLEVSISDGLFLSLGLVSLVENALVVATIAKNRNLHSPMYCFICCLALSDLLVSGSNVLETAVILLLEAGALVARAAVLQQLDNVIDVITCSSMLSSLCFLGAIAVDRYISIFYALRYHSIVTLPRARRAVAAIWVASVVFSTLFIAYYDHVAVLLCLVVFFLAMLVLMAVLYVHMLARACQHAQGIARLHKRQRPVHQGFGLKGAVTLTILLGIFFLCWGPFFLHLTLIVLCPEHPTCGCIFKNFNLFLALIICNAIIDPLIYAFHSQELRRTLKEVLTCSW
Procedure, shortened: (§1)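 Intact-cell competition binding, 2.5 hr at 37 °C, in PBS/10% calf serum/1 mM CaCl2; hMCR-4 cells at 4×10^3 per tube, hMCR-1 cells at 2×10^4 per tube. Filtration on BSA/CaCl2-soaked GF/B, cold 50 mM Tris pH 7.4 washes, scintillation count.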

MCR-4 = target: T2, MCR-4 (Homo sapiens, UniProt P32245); assay: Melanocortin receptor binding assay, competition with 125I-HP 467, HEK 293 cells expressing hMCR-4; conditions: TRG 2406 and TRG 2407 libraries, inhibition of binding of 125I-HP 467; for IC50: read-out: MC-4 IC50
T2 construct: expressed in transfected cells; host or cells: HEK 293
T2 sequence (P32245 whole entry): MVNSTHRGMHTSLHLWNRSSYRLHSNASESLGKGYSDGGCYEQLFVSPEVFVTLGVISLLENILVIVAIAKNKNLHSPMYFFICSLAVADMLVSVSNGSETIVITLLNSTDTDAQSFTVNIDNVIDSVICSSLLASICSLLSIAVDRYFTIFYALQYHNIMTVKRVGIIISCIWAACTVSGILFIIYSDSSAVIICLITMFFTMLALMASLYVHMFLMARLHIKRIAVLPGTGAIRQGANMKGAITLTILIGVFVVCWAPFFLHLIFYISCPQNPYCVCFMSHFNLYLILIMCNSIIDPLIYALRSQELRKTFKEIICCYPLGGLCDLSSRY
Procedure, shortened: as §1

Compound CNC(CN)CCCCN1Cc2ccccc2C(CNCc2ccc(C(F)(F)F)cc2)C1c1ccc(Cl)cc1Cl (stereo not drawn) [TRG 2407-20] has an IC50 (MCR-1) of 3780 nM and an IC50 (MCR-4) of 3.49 µM.

Work on CNC(CN)CCCCN1Cc2ccccc2C(CNCCc2ccccc2)C1c1ccc(Cl)cc1Cl (stereo not drawn) [TRG 2407-21] yielded an IC50 (MCR-1) of 1030 nM and an IC50 (MCR-4) of 0.36 µM.

With CNC(CN)CCCCN1Cc2ccccc2C(CNCCc2ccc(OC)cc2)C1c1ccc(Cl)cc1Cl (stereo not drawn) [TRG 2407-25] the IC50 (MCR-1) was 1470 nM and the IC50 (MCR-4) was 0.62 µM.

For CNC(CN)CCCCN1Cc2ccccc2C(CNCCCc2ccccc2)C1c1ccc(Cl)cc1Cl (stereo not drawn) [TRG 2407-26], the IC50 (MCR-1) was 700 nM and the IC50 (MCR-4) was 0.83 µM.

With CNC(CN)CCCCN1Cc2ccccc2C(CNC2CCCC2)C1c1ccc(Cl)cc1Cl (stereo not drawn) [TRG 2407-27] the IC50 (MCR-1) was 570 nM and the IC50 (MCR-4) was 0.53 µM.

In the case of CNC(CN)CCCCN1Cc2ccccc2C(CNC(C)C)C1c1ccc(-c2ccccc2)cc1 (stereo not drawn) [TRG 2407-28], the IC50 (MCR-1) is reported as 310 nM and the IC50 (MCR-4) is reported as 3.6 µM.

CNC(CN)CCCCN1Cc2ccccc2C(CNC2CCCCCC2)C1c1ccc(Cl)cc1Cl (stereo not drawn) [TRG 2407-29] was tested, and the IC50 (MCR-1) was 640 nM and the IC50 (MCR-4) was 0.77 µM.

CNC(CN)CCCCN1Cc2ccccc2C(CN(C)C2CCCCC2)C1c1ccc(Cl)cc1Cl (stereo not drawn) [TRG 2407-30] was tested, and the IC50 (MCR-1) was 3150 nM and the IC50 (MCR-4) was 2.1 µM.

With CNC(CN)CCCCN1Cc2ccccc2C(CN2CCCCC2)C1c1ccc(Cl)cc1Cl (stereo not drawn) [TRG 2407-32] the IC50 (MCR-1) was 3290 nM and the IC50 (MCR-4) was 2.14 µM.

CNC(CN)CCCCN1Cc2ccccc2C(CN2CCOCC2)C1c1ccc(Cl)cc1Cl (stereo not drawn) [TRG 2407-33] was tested, and the IC50 (MCR-1) was 6900 nM and the IC50 (MCR-4) was 6.02 µM.

Work on CCN(CC)CC1c2ccccc2CN(CCCCC(CN)NC)C1c1ccc(Cl)cc1Cl (stereo not drawn) [TRG 2407-35] yielded an IC50 (MCR-1) of 6520 nM and an IC50 (MCR-4) of 3.41 µM.

C=CCNCC1c2ccccc2CN(CCCCC(CN)NC)C1c1ccc(Cl)cc1Cl (stereo not drawn) [TRG 2407-36] showed an IC50 (MCR-1) of 430 nM and an IC50 (MCR-4) of 0.46 µM.

Work on CNC(CN)CCCCN1Cc2ccccc2C(CNC(C)C)C1c1ccc(Cl)cc1Cl (stereo not drawn) [TRG 2407-37] yielded an IC50 (MCR-1) of 910 nM and an IC50 (MCR-4) of 0.54 µM.

CNC(CN)CCCCN1Cc2ccccc2C(CO)C1c1ccc(Cl)cc1Cl (stereo not drawn) [TRG 2407-40] showed an IC50 (MCR-1) of 4740 nM and an IC50 (MCR-4) of 4.94 µM.

Compound CCNc1ccc(C2C(CNc3ccccc3)c3ccccc3CN2CCCCC(CN)NC)cc1 (stereo not drawn) [TRG 2407-41] has an IC50 (MCR-1) of 5870 nM and an IC50 (MCR-4) of 17 µM.

In the case of CCNc1ccc(C2C(CN(C)c3ccccc3)c3ccccc3CN2CCCCC(CN)NC)cc1 (stereo not drawn) [TRG 2407-42], the IC50 (MCR-1) is reported as 4230 nM and the IC50 (MCR-4) is reported as 7.9 µM.

CCNc1ccc(C2C(CNc3ccccc3Cl)c3ccccc3CN2CCCCC(CN)NC)cc1 (stereo not drawn) [TRG 2407-43] gave an IC50 (MCR-1) of 7070 nM and an IC50 (MCR-4) of 11.2 µM.

Work on CCNc1ccc(C2C(CNc3ccccc3OC)c3ccccc3CN2CCCCC(CN)NC)cc1 (stereo not drawn) [TRG 2407-44] yielded an IC50 (MCR-1) of 1150 nM and an IC50 (MCR-4) of 10.4 µM.

Work on CCNc1ccc(C2C(CNc3cccc(Cl)c3)c3ccccc3CN2CCCCC(CN)NC)cc1 (stereo not drawn) [TRG 2407-45] yielded an IC50 (MCR-1) of 7910 nM and an IC50 (MCR-4) of 11 µM.

In the case of CCNc1ccc(C2C(CNc3cccc(OCC)c3)c3ccccc3CN2CCCCC(CN)NC)cc1 (stereo not drawn) [TRG 2407-46], the IC50 (MCR-1) is reported as 1630 nM and the IC50 (MCR-4) is reported as 16.4 µM.

With CCNc1ccc(C2C(CNc3ccc(Cl)cc3)c3ccccc3CN2CCCCC(CN)NC)cc1 (stereo not drawn) [TRG 2407-48] the IC50 (MCR-1) was 4480 nM and the IC50 (MCR-4) was 10.8 µM.

For CCNc1ccc(C2C(CNc3ccc(OC)cc3)c3ccccc3CN2CCCCC(CN)NC)cc1 (stereo not drawn) [TRG 2407-49], the IC50 (MCR-1) was 2360 nM and the “MC-4 IC50” value (MCR-4) was “no fit”.

With CCNc1ccc(C2C(CNCc3ccccc3)c3ccccc3CN2CCCCC(CN)NC)cc1 (stereo not drawn) [TRG 2407-50] the IC50 (MCR-1) was 350 nM and the IC50 (MCR-4) was 9.1 µM.

Work on CCNc1ccc(C2C(CN(C)Cc3ccccc3)c3ccccc3CN2CCCCC(CN)NC)cc1 (stereo not drawn) [TRG 2407-51] yielded an IC50 (MCR-1) of 2160 nM and an IC50 (MCR-4) of 13.5 µM.

CCNc1ccc(C2C(CNCc3ccccc3Cl)c3ccccc3CN2CCCCC(CN)NC)cc1 (stereo not drawn) [TRG 2407-52] showed an IC50 (MCR-1) of 440 nM and an IC50 (MCR-4) of 1.56 µM.

CCNc1ccc(C2C(CNCc3ccccc3C(F)(F)F)c3ccccc3CN2CCCCC(CN)NC)cc1 (stereo not drawn) [TRG 2407-53] was tested, and the IC50 (MCR-1) was 1270 nM and the IC50 (MCR-4) was 0.79 µM.

With CCNc1ccc(C2C(CNCc3ccccc3OCC)c3ccccc3CN2CCCCC(CN)NC)cc1 (stereo not drawn) [TRG 2407-55] the IC50 (MCR-1) was 190 nM and the IC50 (MCR-4) was 14.9 µM.
